Test results from paper PMC11912270, “Synthesis and SAR Studies of Acyl-Thiourea Platinum(II) Complexes Yield Analogs with Dual-Stage Antiplasmodium Activity” (ACS Medicinal Chemistry Letters, 2025).
“And” between values parts separate entries of the source, which are not always exact repeats. Identical values can stand only once. Like-named read-outs stand apart in the source and are kept apart here.

How the values were obtained:
Cyclic voltammetry = type: physicochemical; conditions: for Epa1: anodic peak potential; for Epa1 / Epc1: 0.1 V/s; for Epc1: cathodic peak potential
Excerpt: It is known that Fe^2+/Fe^3+ redox chemistry has an important role in the bioactivity of ferrocene derivatives.[33] The production of reactive oxygen species (ROS) is one of the modes of action of ferroquine and other ferrocene derivatives[34] and is linked to the correlation between their bioactivity and electrochemical behavior. We determined whether a similar correlation could be made for the mixed-ligand platinum(II) complexes reported herein given that metal centers have the potential to be oxidized and reduced. The electrochemistry of the complexes was studied using cyclic voltammetry (CV), which uses a triangular potential waveform. The CV experiments were performed in either dry MeOH or DMF containing tetrabutylammonium chloride (TBACl) as the supporting electrolyte. The working electrode was glassy carbon with a platinum wire as the counter electrode and Ag/AgCl as the reference. The anodic (Epa) and cathodic (Epc) peak potentials at 0.1 V/s and half-wave potentials (E1/2) were measured (Table 3). All of the tested complexes undergo reversible one-electron Pt^2+/Pt^+ reductions (Figures S38–S46). Complexes C2, C4, and C8 undergo a second nonreversible reduction (Epc2), which is most likely ligand-based and linked to reductions of the substituent on the bpy. Looking at SAR2, the more electron-withdrawing the substituent, the […] the E1/2 (V vs Fe/Fe^+) value was. This trend was expected, as a more electron-withdrawing substituent reduces the electron density around the metal center, making it easier for the metal to be reduced from Pt^2+ to Pt^+. […] This is also the case for other bpy-containing platinum(II) complexes that only undergo reductions.[35],[36] […]
For the cyclic voltammetry experiments a solution of the test compound (1 x 10-3) in DMSO (3 mL) is added to the electrolyte solution (0.1 M tetrabutylammonium chloride (TBACl) in DMSO). The electrochemical measurements were obtained using a Basi Epsilon Eclipse Electrochemical Analyzer Potentiostat and the CV graphs were generated using Excel. The working electrode was glassy carbon (GC) with platinum wire as the counter electrode (CE) and Ag/AgCl as the reference. […]

[1] = Kinetic solubility by HPLC (pH 6.5); conditions: pH 6.5; for Aqueous solubility pH 6.5: kinetic, HPLC
Experimental: 1.7. Kinetic solubility by HPLC (pH 6.5)
Solubility was measured at pH 6.5 using an adapted miniaturized shake-flask method, in 96-well plate format.4,5 Briefly, 4 µL of a 10 mM stock in DMSO was added to a 96-well plate and evaporated using a GeneVac system. Phosphate buffer pH 6.5 was then added to the wells […]
At the end of this incubation, the […]
in the analysis plate. Analysis was then performed by HPLC-DAD and the solubility of each sample was determined from the corresponding calibration curve. […]

ABS parasites = assay: Dual point activity against ABS parasites; type: cell-based, Plasmodium falciparum; conditions: single biological repeat
Excerpt: Table S2: Dual point activity of platinum(II) complexes against ABS parasites, early- and late-
stage gametocytes. Values are averaged from technical triplicates performed for a single

[2] = tested on: early-stage gametocytes (NF54-PfS16-GFP-Luc); assay: Luciferase reporter assay, early-stage gametocytes; type: cell-based, Plasmodium falciparum; conditions: for EG (% inhibition) 1 µM / EG (% inhibition) 5 µM: single biological repeat; for IC50: early (II/III) gametocytes, luciferase, 48 h, read-out: EG IC50
Experimental: (§1) All the complexes were tested for their early- and late-stage gametocyte activity in a dual-point assay (1 μM and 5 μM). […]
(§2) 1.5.In vitro activity against gametocyte stages
(§3) PfNF54 gametocytes were prepared and isolated according to the method reported by Reader […]
(§4) The in vitro gametocyte activity of the synthesized complexes was determined using a luciferase reporter line-based assay.
(§5) NF54-PfS16-GFP-Luc parasites were used for the stage-specific assessment of gametocytocidal activity. Early-stage gametocyte (stage I-III) experiments were performed on day 5 (representing >90% of early-stage and late-stage gametocyte (stages IV/V) experiments were performed on day 10. In each experiment, assays were set up with the use of 2-3% […]
(§6) Luciferase activity was determined in 30 µL parasite lysates by adding luciferin substrate (30 µL) (Promega Luciferase Assay System) at room temperature. […]

[3] = tested on: Chinese hamster ovary (CHO) cell line; assay: MTT cytotoxicity assay; type: cell-based; conditions: cytotoxicity, MTT, 48 h; N, n = 1, 3; read-out: CHO IC50
Experimental: 1.6.In vitro cytotoxicity assay
A 3-(4,5-dimethylthiazol-2-yl)-2,5-diphenyltetrazoliumbromide (MTT) assay was used to screen the metal complexes against the mammalian Chinese hamster ovarian (CHO) cell line.
A stock solution of each compound (2 mg/mL) in DMSO was prepared and kept at -20 °C until needed. Emetine was used as a reference drug. A starting concentration of 100 µg/mL was used, and serially diluted ten-fold using a complete medium to give the lowest concentration of 0.001 µg/mL (6 dilutions). The plates containing the CHO cells under drug pressure were […]
Plates containing the drug and cell suspension were developed by adding 25 μL of sterile MTT (Thermo Fisher Scientific) (25 µL) to each well, followed by 4 h […]
of incubation at room temperature in the dark. The plates were then centrifuged, and the supernatant was removed via aspiration. Sample absorbance was read at a wavelength of 540 […]
analysis via GraphPad Prism v.4.0 software. The IC50 values were determined for each compound were determined from the dose-response curves. […]

PfNF54 ABS parasites = assay: SYBR Green I-based proliferative assay, PfNF54 ABS parasites; type: cell-based, Plasmodium falciparum; conditions: for IC50: ABS, SYBR Green I, 96 h, mean ± S.E., N = 3 (no S.E.: N = 1)
Experimental: (§7) The parasites were incubated under drug […]
(§8) incubation, parasite survival was determined by adding equal volumes of parasite suspension (100 µL) and SYBR Green I lysis buffer (0.2% µL/mL of 10 000x SYBR Green I, 20 mM Tris-HCl, pH 7.5, 5 mM EDTA, 0.008% saponin (w/v) and 0.08% Triton x-100). This was incubated for 1 hour at room temperature in the dark. […]

PfK1 ABS parasites = type: cell-based, Plasmodium falciparum; conditions: for IC50: ABS, SYBR Green I, 96 h, mean ± S.E.; for RI (resistance index): RI = PfK1 IC50/PfNF54 IC50
Experimental: as §7, §8

[4] = tested on: late-stage gametocytes (NF54-PfS16-GFP-Luc); assay: Luciferase reporter assay, late-stage gametocytes; type: cell-based, Plasmodium falciparum; conditions: for LG (% inhibition) 1 µM / LG (% inhibition) 5 µM: single biological repeat
Experimental: as §1, §2, §3, §4, §5, §6

[5] = Single-point microsomal metabolic stability, human; type: in vitro ADME; conditions: human liver microsomes, 1 µM
Experimental: (§9) 1.8. Microsomal metabolic stability studies […]
(§10) rat IGS, Xenotech), and mouse (male mouse CD1, Xenotech) liver microsomes (0.4 mg/ml) for 30 min at 37 °C. Reactions were quenched by adding ice-cold acetonitrile containing […]
(§11) disappearance of the parent compound. Half-life, clearance, and hepatic excretion ratios were determined using standard equations.6,7 Propranolol. […]

[6] = Single-point microsomal metabolic stability, mouse; type: in vitro ADME; conditions: mouse liver microsomes, 1 µM
Experimental: as §9, §10, §11

[7] = late (IV/V) gametocytes, luciferase, 48 h, read-out: LG IC50

Compound	Epa1 (Cyclic voltammetry)	Epc1 (Cyclic voltammetry)	ABS (% inhibition) 1 µM (ABS parasites)	ABS (% inhibition) 5 µM (ABS parasites)	EG (% inhibition) 1 µM [2]	EG (% inhibition) 5 µM [2]	IC50 [2]	IC50 [3]	IC50 (PfNF54 ABS parasites)	LG (% inhibition) 1 µM [4]	LG (% inhibition) 5 µM [4]	IC50 [4, 7]	other results
Cc1ccc(C2=[O+][Pt-2]3([S]C(N(CCO)CCO)=N2)[n+]2ccc(C(C)(C)C)cc2-c2cc(C(C)(C)C)cc[n+]23)cc1.[Cl-] [C11]	–1.239 V	–1.128 V											
COC(=O)[C@H]1[C@H]2C[C@@H]3c4[nH]c5cc(OC)ccc5c4CCN3C[C@H]2C[C@@H](OC(=O)c2cc(OC)c(OC)c(OC)c2)[C@@H]1OC [Reserpine, reference compound]													solubility at 24 h ([1]; phosphate buffer): < 5 µM
CC(C)(C)c1ccnc(-c2cc(C(C)(C)C)ccn2)c1.OCCN(CCO)C(=S)N=C([O][Pt+])c1ccc(Cl)cc1.[Cl-] [C13]	–1.233 V	–1.119 V											
Cc1cccc(-c2cccc(C)n2)n1.OCCN(CCO)C(=S)N=C([O][Pt+])c1ccccc1.[Cl-] [C15]			0.0 % inhibition	89.6 % inhibition	2.8 % inhibition	43.9 % inhibition	9.51 µM	5 µM	2.91 µM	54.8 % inhibition	84.0 % inhibition	1.41 µM	fold decrease in PfNF54 activity compared to C2 (PfNF54 ABS parasites; vs 4,4'-dimethyl complex C2): 2 fold; IC50 (PfK1 ABS parasites): 2.76 µM; RI (resistance index) (PfK1 ABS parasites): 0.9
OCCN(CCO)C1=NC(c2ccccc2)=[O+][Pt-2]2([S]1)[n+]1ccc(C(F)(F)F)cc1-c1cc(C(F)(F)F)cc[n+]12.[Cl-] [C8]	–0.710 V	–0.607 V	10.6 % inhibition	29.9 % inhibition	26.2 % inhibition	50.0 % inhibition	> 20 µM	> 50 µM	> 5 µM	80.6 % inhibition	85.8 % inhibition	0.38 µM	IC50 ([4]; gametocyte stage not specified, read-out: gametocidal activity IC50): < 5 µM; E1/2 (Cyclic voltammetry; half-wave potential corrected to ferrocene): –1.076 V vs Fe/Fe^+; Epc2 (Cyclic voltammetry; second nonreversible reduction): –1.272 V vs Ag/Ag^+; Microsomal metabolic stability (% remaining after 30 min) Human [5]: 47 % remaining; Microsomal metabolic stability (% remaining after 30 min) Mouse [6]: 46 % remaining
COc1ccc(C2=[O+][Pt-2]3([S]C(N(CCO)CCO)=N2)[n+]2ccc(C(C)(C)C)cc2-c2cc(C(C)(C)C)cc[n+]23)cc1.[Cl-] [C12]	–1.247 V	–1.133 V											
OCCN(CCO)C1=NC(c2ccccc2)=[O+][Pt-2]2([S]1)[n+]1ccc(Cl)cc1-c1cc(Cl)cc[n+]12.[Cl-] [C7]			2.7 % inhibition	57.3 % inhibition	2.2 % inhibition	4.1 % inhibition	> 20 µM	> 50 µM	> 5 µM	0.0 % inhibition	0.4 % inhibition	> 20 µM	
COC(=O)c1cc[n+]2c(c1)-c1cc(C(=O)OC)cc[n+]1[Pt-2]21[O+]=C(c2ccccc2)N=C(N(CCO)CCO)[S]1.[Cl-] [C10]			7.11 % inhibition	17.3 % inhibition	3.7 % inhibition	4.2 % inhibition	> 20 µM	> 50 µM	> 5 µM	0.6 % inhibition	6.1 % inhibition	> 20 µM	Aqueous solubility pH 6.5 [1]: <5 μM
CC(C)(C)c1cc[n+]2c(c1)-c1cc(C(C)(C)C)cc[n+]1[Pt-2]21[O+]=C(c2ccccc2)N=C(N(CCO)CCO)[S]1.[Cl-] [C1]	–1.233 V	–1.127 V											Aqueous solubility pH 6.5 [1]: 95 μM
Cc1ccc(-c2ccc(C)cn2)nc1.OCCN(CCO)C(=S)N=C([O][Pt+])c1ccccc1.[Cl-] [C14]					0.0 % inhibition	0.0 % inhibition		> 50 µM	0.241 ± 0.04 µM	39.4 % inhibition	56.6 % inhibition		fold improvement in PfNF54 activity compared to C2 (PfNF54 ABS parasites; vs 4,4'-dimethyl complex C2): 5 fold and 6 fold; IC50 (PfK1 ABS parasites): 0.886 ± 0.059 µM; RI (resistance index) (PfK1 ABS parasites): 3.7
OCCN(CCO)C1=NC(c2ccccc2)=[O+][Pt-2]2([S]1)[n+]1ccc(O)cc1-c1cc(O)cc[n+]12.[Cl-] [C5]			0.0 % inhibition	11.0 % inhibition	0.0 % inhibition	0.0 % inhibition	> 20 µM	> 50 µM	> 5 µM	0.0 % inhibition	0.5 % inhibition	> 20 µM	
CNC(=O)c1cc[n+]2c(c1)-c1cc(C(=O)NC)cc[n+]1[Pt-2]21[O+]=C(c2ccccc2)N=C(N(CCO)CCO)[S]1.[Cl-] [C9]			0.0 % inhibition	24.5 % inhibition	0.0 % inhibition	4.5 % inhibition	> 20 µM	> 50 µM	> 5 µM	0.0 % inhibition	2.4 % inhibition	> 20 µM	
